# Patent US20260265246A1 (ICAHN SCHOOL OF MEDICINE AT MOUNT SINAI, priority 2021, published 2026)
# Read-outs that look alike come from different tables or passages of the source.
# What was measured:
# 5HT2A receptor [1] = target: T1, 5HT2A receptor (Homo sapiens, UniProt P28223); assay: biochemical; assay type: binding; design: expressed in transfected cells; crude membranes; conditions: 5HT2A Ki (nM)
# 5HT2A receptor [2] = target: T1, 5HT2A receptor; assay: cell-based; design: expressed in transfected cells; host or cells: HEK293T cells, transient co-transfection; conditions: for Emax: HEK-293T
# [3] = secondary binding assay, Cheng-Prusoff
# [4] = BRET2 Gαq dissociation, HEK293T, normalized to 5-HT, read-out: 5HTA Gq Emax (%)
# [5] = 5HTA Gq EC50 (nM), BRET2 Gαq dissociation, HEK293T
# [6] = read-out: 5HTA Gq Emax (%), BRET2 Gαq dissociation, HEK293T, normalized to 5-HT
# [7] = secondary radioligand binding, Ki from IC50 by Cheng-Prusoff
# [8] = 5HT2A Gq EC50 (nM), BRET2 Gαq dissociation, HEK293T cells
# [9] = BRET2 Gαq dissociation, HEK293T cells, normalized to 5-HT, read-out: 5HT2A Gq Emax (%)
# T1 sequence (P28223 whole entry): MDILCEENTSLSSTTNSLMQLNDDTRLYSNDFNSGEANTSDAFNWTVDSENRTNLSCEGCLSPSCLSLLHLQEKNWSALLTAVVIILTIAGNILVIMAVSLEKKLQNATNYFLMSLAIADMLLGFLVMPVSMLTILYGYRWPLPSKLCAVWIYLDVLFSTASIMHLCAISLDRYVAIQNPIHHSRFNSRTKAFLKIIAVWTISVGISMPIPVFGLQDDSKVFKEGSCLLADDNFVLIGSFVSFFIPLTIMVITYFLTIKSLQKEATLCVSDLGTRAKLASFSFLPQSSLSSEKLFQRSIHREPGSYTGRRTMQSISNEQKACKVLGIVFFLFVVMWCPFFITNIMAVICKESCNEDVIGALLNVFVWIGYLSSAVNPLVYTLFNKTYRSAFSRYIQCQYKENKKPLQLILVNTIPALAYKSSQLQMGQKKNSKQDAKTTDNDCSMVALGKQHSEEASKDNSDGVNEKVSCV
Structure (SMILES),Ki (5HT2A receptor [1]; [3]),Ki (5HT2A receptor [1]; [7]),other results
"CCCN1CCC=C(c2n[nH]c3c(Cl)cc(F)cc23)C1 [Example 173, 7-chloro-5-fluoro-3-(1-propyl-1,2,5,6-tetrahydropyridin-3-yl)-1H-indazole]",839 nM,,"EC50 (5HT2A receptor [2]; BRET2 Gαq dissociation, HEK293T, read-out: 5HTA Gq EC50): 84.6 nM; Emax (5HT2A receptor [2]; [4]): 57.3%"
"Clc1cccc2c(C34CCNCC3C4)n[nH]c12 (centres unmarked) [Example 228, 3-(3-azabicyclo[4.1.0]heptan-6-yl)-7-chloro-1H-indazole]",5240 nM,,EC50 (5HT2A receptor [2]; [5]): 1070 nM; Emax (5HT2A receptor [2]; [4]): 76.4%
"Clc1cccc2c(C34CNCCC3C4)n[nH]c12 (centres unmarked) [Example 181, 3-(3-azabicyclo[4.1.0]heptan-1-yl)-7-chloro-1H-indazole]",842 nM,,EC50 (5HT2A receptor [2]; [5]): 120 nM; Emax (5HT2A receptor [2]; [6]): 61.3%
"c1cnc2[nH]cc(C34CNCCC3C4)c2c1 (centres unmarked) [Example 268, 3-(3-azabicyclo[4.1.0]heptan-1-yl)-1H-pyrrolo[2,3-b]pyridine]",5940 nM,,EC50 (5HT2A receptor [2]; [5]): 740 nM; Emax (5HT2A receptor [2]; [4]): 98%
"Clc1cccc2c(C3CC4CCC(C3)N4)n[nH]c12 (centres unmarked) [Example 225, 3-(8-azabicyclo[3.2.1]octan-3-yl)-7-chloro-1H-indazole]",2110 nM,,EC50 (5HT2A receptor [2]; [5]): 500 nM; Emax (5HT2A receptor [2]; [4]): 105%
"CN1CCC=C(c2c[nH]c3ccncc23)C1 [Example 136, 3-(1-methyl-1,2,5,6-tetrahydropyridin-3-yl)-1H-pyrrolo[3,2-c]pyridine]",1810 nM,,EC50 (5HT2A receptor [2]; [5]): 529 nM; Emax (5HT2A receptor [2]; [4]): 92.5%
"Fc1cc(Cl)c2[nH]cc(C3CNCCO3)c2c1 (centres unmarked) [Example 249, 2-(7-chloro-5-fluoro-1H-indol-3-yl)morpholine]",1020 nM,,EC50 (5HT2A receptor [2]; [5]): 118 nM; Emax (5HT2A receptor [2]; [4]): 72.2%
"Fc1cc(Cl)c2[nH]nc(C34CNCC3C4(F)F)c2c1 (centres unmarked) [Example 203, 7-chloro-3-(6,6-difluoro-3-azabicyclo[3.1.0]hexan-1-yl)-5-fluoro-1H-indazole]",1080 nM,,EC50 (5HT2A receptor [2]; [5]): 700 nM; Emax (5HT2A receptor [2]; [4]): 39.5%
"Cc1[nH]c2ccccc2c1C1=CCCN(C)C1 [Example 63, 2-methyl-3-(1-methyl-1,2,5,6-tetrahydropyridin-3-yl)-1H-indole]",,823 nM,EC50 (5HT2A receptor [2]; [8]): 162 nM; Emax (5HT2A receptor [2]; [9]): 79%
"CCCN1CCC=C(c2c[nH]c3ccncc23)C1 [Example 144, 3-(1-propyl-1,2,5,6-tetrahydropyridin-3-yl)-1H-pyrrolo[3,2-c]pyridine]",8250 nM,,EC50 (5HT2A receptor [2]; [5]): 1180 nM; Emax (5HT2A receptor [2]; [4]): 67.2%
"Clc1cccc2c(C3=CCCN(CC4CC4)C3)n[nH]c12 [Example 151, 7-chloro-3-(1-(cyclopropylmethyl)-1,2,5,6-tetrahydropyridin-3-yl)-1H-indazole]",198 nM,,EC50 (5HT2A receptor [2]; [5]): 61.1 nM; Emax (5HT2A receptor [2]; [6]): 38.8%
"Clc1cccc2c(C34CNCC3C4)n[nH]c12 (centres unmarked) [Example 180, 3-(3-azabicyclo[3.1.0]hexan-1-yl)-7-chloro-1H-indazole]",227 nM,,EC50 (5HT2A receptor [2]; [5]): 174 nM; Emax (5HT2A receptor [2]; [6]): 109%
"CN1CCC2CC2(c2n[nH]c3c(Cl)cc(F)cc23)C1 (centres unmarked) [Example 198, 7-chloro-5-fluoro-3-(3-methyl-3-azabicyclo[4.1.0]heptan-1-yl)-1H-indazole]",1450 nM,,EC50 (5HT2A receptor [2]; [5]): 1160 nM; Emax (5HT2A receptor [2]; [4]): 45.1%
"COc1ccnc2[nH]cc(C3=CCCNC3)c12 [Example 10, 4-methoxy-3-(1,2,5,6-tetrahydropyridin-3-yl)-1H-pyrrolo[2,3-b]pyridine]",,312 nM,EC50 (5HT2A receptor [2]; [8]): 125 nM; Emax (5HT2A receptor [2]; [9]): 66.5%
"Cc1[nH]c2ccccc2c1C1=CCCNC1 [Example 61, 2-methyl-3-(1,2,5,6-tetrahydropyridin-3-yl)-1H-indole]",,805 nM,EC50 (5HT2A receptor [2]; [8]): 363 nM; Emax (5HT2A receptor [2]; [9]): 67.4%
"C1=C(c2c[nH]c3ncc(-c4ccccc4)cc23)CNCC1 [Example 4, 5-phenyl-3-(1,2,5,6-tetrahydropyridin-3-yl)-1H-pyrrolo[2,3-b]pyridine]",,613 nM,EC50 (5HT2A receptor [2]; [8]): 294 nM; Emax (5HT2A receptor [2]; [9]): 67%
"Clc1cccc2c(C3=CCCCNC3)c[nH]c12 [Example 212, 7-chloro-3-(2,5,6,7-tetrahydro-1H-azepin-3-yl)-1H-indole]",6240 nM,,EC50 (5HT2A receptor [2]; [5]): 655 nM; Emax (5HT2A receptor [2]; [6]): 72.5%
"CN1CCC=C(c2n[nH]c3cc(Cl)ccc23)C1 [Example 94, 6-chloro-3-(1-methyl-1,2,5,6-tetrahydropyridin-3-yl)-1H-indazole]",,1300 nM,EC50 (5HT2A receptor [2]; [8]): 309 nM; Emax (5HT2A receptor [2]; [9]): 72.1%
"FC1(F)CC(N2CCC=C(c3n[nH]c4c(Cl)cccc34)C2)C1 [Example 179, 7-chloro-3-(1-(3,3-difluorocyclobutyl)-1,2,5,6-tetrahydropyridin-3-yl)-1H-indazole]",8620 nM,,
"CN1CCC=C(c2cn(C)c3ncccc23)C1 [Example 48, 1-methyl-3-(1-methyl-1,2,5,6-tetrahydropyridin-3-yl)-1H-pyrrolo[2,3-b]pyridine]",,423 nM,
"CCN(CC)C(=O)NC1C=C(c2c[nH]c3ncccc23)CNC1 (centres unmarked) [Example 49, 3-(5-(1H-pyrrolo[2,3-b]pyridin-3-yl)-1,2,3,6-tetrahydropyridin-3-yl)-1,1-diethylurea]",,5580 nM,
"CN1CCC=C(c2c[nH]c3cc(-c4ccccc4)ccc23)C1 [Example 40, 3-(1-methyl-1,2,5,6-tetrahydropyridin-3-yl)-6-phenyl-1H-indole]",,1330 nM,

Structure (SMILES),Ki (5HT2A receptor [1]; [3]),Ki (5HT2A receptor [1]; [7]),other results
"Fc1cccn2c(C3=CCCNC3)cnc12 [Example 111, 8-fluoro-3-(1,2,5,6-tetrahydropyridin-3-yl)imidazo[1,2-a]pyridine]",,> 10000 nM,
"CN1CCC=C(c2c[nH]c3cc(C(C)(C)C)ccc23)C1 [Example 38, 6-(tert-butyl)-3-(1-methyl-1,2,5,6-tetrahydropyridin-3-yl)-1H-indole]",,7880 nM,
"COc1cccc2c(C3=CCCNC3)n[nH]c12 [Example 92, 7-methoxy-3-(1,2,5,6-tetrahydropyridin-3-yl)-1H-indazole]",,1090 nM,
"CC(C)c1ccc2c(C3=CCCNC3)c[nH]c2c1 [Example 33, 6-isopropyl-3-(1,2,5,6-tetrahydropyridin-3-yl)-1H-indole]",,1260 nM,
"CC(C)c1ccc2c(C3=CCCN(C)C3)c[nH]c2c1 [Example 34, 6-isopropyl-3-(1-methyl-1,2,5,6-tetrahydropyridin-3-yl)-1H-indole]",,486 nM,
"CC(C)c1cccc2c(C3=CCCN(Cc4ccccc4)C3)c[nH]c12 [Example 70, 3-(1-benzyl-1,2,5,6-tetrahydropyridin-3-yl)-7-(propan-2-yl)-1H-indole]",,2050 nM,
"CN1CCC(c2n[nH]c3c(Cl)cccc23)CC1 [Example 240, 7-chloro-3-(1-methylpiperidin-4-yl)-1H-indazole]",378 nM,,
"C1=C(c2c[nH]c3nccc(-c4ccccc4)c23)CNCC1 [Example 12, 4-phenyl-3-(1,2,5,6-tetrahydropyridin-3-yl)-1H-pyrrolo[2,3-b]pyridine]",,191 nM,
"CN1CC=C(c2n[nH]c3c(Cl)cccc23)CC1 [Example 239, 7-chloro-3-(1-methyl-1,2,3,6-tetrahydropyridin-4-yl)-1H-indazole]",603 nM,,
"CCCN1CCOC(c2c[nH]c3c(Cl)cccc23)C1 (centres unmarked) [Example 247, 2-(7-chloro-1H-indol-3-yl)-4-propylmorpholine]",2560 nM,,
"C1=C(c2c[nH]c3cc(-c4ccccc4)ccc23)CNCC1 [Example 39, 6-phenyl-3-(1,2,5,6-tetrahydropyridin-3-yl)-1H-indole]",,6760 nM,
"CCCc1cccc2c(C3CCCN(C)C3)c[nH]c12 (centres unmarked) [Example 235, 3-(1-methylpiperidin-3-yl)-7-propyl-1H-indole]",5550 nM,,
"Cc1cccn2c(C3=CCCNC3)cnc12 [Example 112, 8-methyl-3-(1,2,5,6-tetrahydropyridin-3-yl)imidazo[1,2-a]pyridine]",,9040 nM,
"CCCN1CCC=C(c2c[nH]c3cnccc23)C1 [Example 143, 3-(1-propyl-1,2,5,6-tetrahydropyridin-3-yl)-1H-pyrrolo[2,3-c]pyridine]",9760 nM,,
"Clc1cccc2c(-c3cccnc3)n[nH]c12 [Example 214, 7-chloro-3-(pyridin-3-yl)-1H-indazole]",> 10000 nM,,
"CCCN1CCC=C(c2n[nH]c3c(Cl)ccc(F)c23)C1 [Example 177, 7-chloro-4-fluoro-3-(1-propyl-1,2,5,6-tetrahydropyridin-3-yl)-1H-indazole]",1830 nM,,
"CN1CCN(c2n[nH]c3c(C#N)cccc23)CC1 [Example 233, 3-(4-methylpiperazin-1-yl)-1H-indazole-7-carbonitrile]",4830 nM,,
"CN(C)C1CCC=C(c2n[nH]c3c(Cl)cccc23)C1 (centres unmarked) [Example 170, 3-(7-chloro-1H-indazol-3-yl)-N,N-dimethylcyclohex-3-en-1-amine]",> 10000 nM,,
"Cc1cccc2c(C3=CCNCCC3)n[nH]c12 [Example 204, 7-methyl-3-(2,5,6,7-tetrahydro-1H-azepin-4-yl)-1H-indazole]",158 nM,,
"Cc1ccc2c(C3=CCCN(C)C3)c[nH]c2c1 [Example 30, 6-methyl-3-(1-methyl-1,2,5,6-tetrahydropyridin-3-yl)-1H-indole]",,647 nM,
"Cc1cccc2c(C3=CCN(C)CCC3)n[nH]c12 [Example 205, 7-methyl-3-(1-methyl-2,5,6,7-tetrahydro-1H-azepin-4-yl)-1H-indazole]",217 nM,,
"CN1CCC=C(c2c[nH]c3c(C(C)(C)C)cccc23)C1 [Example 55, 7-(tert-butyl)-3-(1-methyl-1,2,5,6-tetrahydropyridin-3-yl)-1H-indole]",,374 nM,
